Laboratory results as given in patent US20210155715A1, “USE OF TRYPTOPHAN DERIVATIVES AND L-METHIONINE FOR PROTEIN FORMULATION” (Genentech, Inc., priority 2018, published 2021).

Experiments:
[1] = AAPH chemical oxidation stress of mAb1/mAb2, LC-MS peptide mapping; type: physicochemical; settings: 0.3 mM NAT
Description: Antibodies were subjected to AAPH stress followed by peptide mapping to identify the CDR and Fc residues that were sensitive to oxidation (Dion et al., manuscript in preparation). […] If a residue oxidized by >5% relative to the control, it was deemed sensitive and monitored throughout the course of the experiments. […] In brief, samples were denatured, reduced, carboxylmethylated and subjected to trypsin digestion. Peptides were separated on an Acquity UPLC Peptide CSH C18 column using a water/acetonitrile/formic acid gradient on a Waters Acquity H-Class UHPLC coupled to a Thermo Q Exactive Plus high-resolution mass spectrometer. Data was processed using Thermo Scientific PepFinder™ and Xcalibur™ software. Integration was performed on extracted ion chromatograms of monoisotopic m/z using the most abundant charge state(s) for the native and oxidized peptides. The percent oxidation was calculated by dividing the peak area of the oxidized peptides by the summed peak area of the native and oxidized peptides. The major tryptophan degradation products (+16 and +32, in addition to +4, +20, and +48 for highly oxidized sites) were summed and used to calculate tryptophan oxidation. Only methionine sulfoxide (M+16) was used to calculate methionine oxidation, as methionine sulfone (M+32) was not observed under these conditions. […]

[2] = molecular target: T1, neurokinin-1 (NK-1) receptor (Homo sapiens, UniProt P25103); assay: Binding to the NK-1 receptor in U373MG human astrocytoma cells; settings: room temperature
T1 construct: U373MG human astrocytoma cells which endogenously express the receptor; endogenous in cells; host or cells: U373MG human astrocytoma cells
Description: The activity of NAT was assessed in binding, cellular and nuclear receptor functional and tissue bioassays. Binding to the neurokinin-1 (NK-1) receptor was assessed in U373MG human astrocytoma cells which endogenously express the receptor (Eistetter et al. (1992) Functional characterization of Neurokinin-1 receptors on human U373MG astrocytoma cells. Glia 6(2):89-95; Heuillet et al. (1993) J. Neurochem 60(3):868-876), and compared to the reference agonist [Sar^9, Met(O2)^11]-SP or to the reference antagonist L 733,060. NAT or the reference compounds were incubated with U373MG cells at room temperature; all concentrations were assayed in duplicate.

[3] = Light exposure stress (high intensity UV) of mAb1/mAb2, LC-MS peptide mapping; type: physicochemical; settings: 5 mM L-Methionine
Description: Antibodies were subjected to AAPH stress followed by peptide mapping to identify the CDR and Fc residues that were sensitive to oxidation (Dion et al., manuscript in preparation). Kabat numbering was used to identify variable fragment (Fv) residues, while EU nomenclature (Edelman et al. (1969) Proc Natl Acad Sci USA 63(1):78-85) was used to identify Fc residues. If a residue oxidized by >5% relative to the control, it was deemed sensitive and monitored throughout the course of the experiments. Peptide mapping and analysis information was as reported in Dion et al. (manuscript in preparation). In brief, samples were denatured, reduced, carboxylmethylated and subjected to trypsin digestion. […] The percent oxidation was calculated by dividing the peak area of the oxidized peptides by the summed peak area of the native and oxidized peptides. […]
Proteins (10 mg/mL) were exposed to light stress with a high intensity UV component (300 kilolux-hours visible light and 50 W·h/m^2 of near UV (320-400 nm) light over a 6-hour period) at various NAT concentrations (0-1 mM NAT) to determine the efficacy of NAT as an antioxidant against photo-oxidation (FIGS. 3A-B). […] Residues that were determined to be insensitive to light oxidation under antioxidant-free conditions remained insensitive to light when NAT was added to the formulation under the tested conditions.

T1 sequence (P25103 whole entry): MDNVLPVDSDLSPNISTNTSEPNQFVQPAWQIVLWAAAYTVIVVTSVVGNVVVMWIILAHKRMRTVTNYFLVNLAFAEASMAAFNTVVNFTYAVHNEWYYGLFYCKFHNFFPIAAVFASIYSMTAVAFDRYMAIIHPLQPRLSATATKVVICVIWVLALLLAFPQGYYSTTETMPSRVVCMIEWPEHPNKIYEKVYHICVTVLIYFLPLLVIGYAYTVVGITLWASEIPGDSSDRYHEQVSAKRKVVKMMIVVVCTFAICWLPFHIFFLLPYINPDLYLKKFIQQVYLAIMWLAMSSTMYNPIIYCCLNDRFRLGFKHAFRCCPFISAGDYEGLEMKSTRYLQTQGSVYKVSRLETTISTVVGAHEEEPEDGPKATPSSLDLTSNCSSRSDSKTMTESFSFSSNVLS

SMILES	oxidation of CDR and Fv tryptophan residues [1]	IC50 for agonist binding to the NK-1 receptor [2]	IC50 for antagonist binding to the NK-1 receptor [2]	impact on oxidation of CDR and Fv residues ([3]; alone or with 0.3 mM NAT, UV light)	UV light-induced Fc methionine oxidation ([3]; mAb1 and mAb2)
CC(=O)NC(Cc1c[nH]c2ccccc12)C(=O)O (racemic) [NAT, N-acetyl-DL-tryptophan]	< 10%	could not be calculated	could not be calculated		
CSCC[C@H](N)C(=O)O [L-Methionine, L-methionine]				no beneficial impact	improved
